Tested on: human myeloid leukemia cell lines KBM-3 and KBM-7/B5, as well as the OCI-AML3
Experiment: In vitro cytotoxicity of busulfan, MTT assay
Format: cell-based
Conditions: compared with Bu dissolved in DMSO (positive control)
Protocol: The cytotoxic potential of the selected preferred solvent systems with and without Bu was determined against the human myeloid leukemia cell lines KBM-3 and KBM-7/B5, as well as the OCI-AML3 (Andersson et al., 1993; Andersson et al., 1987; Andersson et al., 1995; Wang et al., 1991). Briefly, continuously growing cells were exposed to drug, and then pelleted, after which they were resuspended in complete cell culture medium at 2×10^5/mL and aliquoted (20,000/well) in 96-well plates, incubated at 37° C. for 4 days, and analyzed by the MTT assay (Mosmann, 1983). Graphical analyses including calculations of IC50 and charting of survival were done using Prism 4 (GraphPad Software, Inc., San Diego, Calif.). Cells exposed in parallel to solvent system and medium alone served as negative controls, and cells exposed to […] (final concentration 0.08% v/v) served as a positive control for a comparison of cytotoxic action with the DMA-Bu formulation.

## CS(=O)(=O)OCCCCOS(C)(=O)=O [Busulfan, 1,4-butanediol dimethanesulfonate]
  cytotoxic activity: retained full cytotoxic activity

Reference: patent US10028949B2, “Parenteral formulations of lipophilic pharmaceutical agents and methods for preparing and using the same” (priority 2011, dated 2018)
